Legend:
VIOTR = assay: Post-emergence herbicidal effect, greenhouse pot test; type: in vivo, Viola tricolor; details: Viola tricolor, 504 h, 320 g/ha, read-out: Post-emergence effect against VIOTR in %
Outline: (§1)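 Greenhouse pot test: weeds and crops sown in sandy loam, sprayed post-emergence at one-leaf stage (2–3 weeks after sowing) with WP or EC formulations plus 0.5% additive at 600 l/ha water, rates 20–320 g/ha. Visual rating about 3 weeks later versus untreated controls (100% = dead, 0% = as control).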

GLXMA = assay: Pre-emergence herbicidal effect and crop plant compatibility, greenhouse pot test; type: in vivo, Glycine max; details: 80 g/ha, scored visually after about 3 weeks vs untreated controls
From the text: (§2) Seeds of monocotyledonous and dicotyledonous weed plants and crop plants are placed in plastic or organic planting pots and covered with soil. The compounds of the invention, formulated in the form of wettable powders (WP) or as emulsion concentrates (EC), are then applied to the surface of the covering soil as aqueous suspension or emulsion with addition of 0.5% additive at a water application rate equivalent to 600 l/ha. After the treatment, the pots are placed in a greenhouse and kept under good growth conditions for the trial plants. After about 3 weeks, the effect of the preparations is scored visually in comparison with untreated controls as percentages. For example, 100% activity=the plants have died, 0% activity=like control plants.
(§3) Tables 1a to 19c below show the effects/crop compatibilities of selected compounds of the general formula (I) on various harmful plants at an application rate corresponding to 20 to 320 g/ha, which were obtained by the trial procedure specified above.
(§4) • ALOMY: Alopecurus myosuroides SETVI: Setaria viridis • AVEFA: Avena fatua POLCO: Fallopia convolvulus • AMARE: Amaranthus retroflexus ECHCG: Echinochloa crus-galli • LOLRJ: Lolium rigidum STEME: Stellaria media • VERPE: Veronica persica MATIN: Tripleurospermum inodorum • DIGSA: Digitaria sanguinalis ABUTH: Abutylon threophrasti • TRZAS: Triticum aestivum VIOTR: Viola tricolor • BRSNW: Brassica napus ZEAMX: Zea mays • PHBPU: Ipomoea purpurea GLXMA: Glycine max • ORYSA: Oryza sativa HORMU: Hordeum murinum

ALOMY [1] = assay: Pre-emergence herbicidal effect, greenhouse pot test; type: in vivo, Alopecurus myosuroides; details: 320 g/ha, scored visually after about 3 weeks vs untreated controls
From the text: as §2, §3, §4

MATIN [2] = assay: as above; type: in vivo, Tripleurospermum inodorum; details: scored visually after about 3 weeks vs untreated controls; for pest or weed control at 320 g/ha: Tripleurospermum inodorum, 504 h, read-out: Pre-emergence effect at 320 g/ha against MATIN in %
From the text: as §2, §3, §4

ECHCG [3] = assay: Post-emergence herbicidal effect, greenhouse pot test; type: in vivo, Echinochloa crus-galli; details: Echinochloa crus-galli, 504 h, read-out: Post-emergence effect against ECHCG in %
Outline: as §1

ALOMY [4] = assay: as above; type: in vivo, Alopecurus myosuroides; details: Alopecurus myosuroides, 504 h, visual rating about 3 weeks after treatment, read-out: Post-emergence effect against ALOMY
Outline: as §1

MATIN [5] = assay: as above; type: in vivo, Tripleurospermum inodorum; details: Tripleurospermum inodorum, 504 h, read-out: Post-emergence effect against MATIN in %
Outline: as §1

POLCO [6] = assay: Pre-emergence herbicidal effect, greenhouse pot test; type: in vivo, Fallopia convolvulus; details: Fallopia convolvulus, 504 h, 320 g/ha, scored visually after about 3 weeks vs untreated controls, read-out: Pre-emergence effect at 320 g/ha against POLCO in %
From the text: as §2, §3, §4

AVEFA [7] = assay: Post-emergence herbicidal effect, greenhouse pot test; type: in vivo, Avena fatua; details: Avena fatua, 504 h, 320 g/ha, visual rating about 3 weeks after treatment, read-out: Post-emergence effect against AVEFA
Outline: as §1

ECHCG [8] = assay: Pre-emergence herbicidal effect, greenhouse pot test; type: in vivo, Echinochloa crus-galli; details: Echinochloa crus-galli, 504 h, 320 g/ha, scored visually after about 3 weeks vs untreated controls, read-out: Pre-emergence effect at 320 g/ha against ECHCG in %
From the text: as §2, §3, §4

TRZAS = assay: Pre-emergence herbicidal effect and crop plant compatibility, greenhouse pot test; type: in vivo, Triticum aestivum; details: 80 g/ha, scored visually after about 3 weeks vs untreated controls
From the text: as §2, §3, §4

PHBPU [9] = assay: Pre-emergence herbicidal effect, greenhouse pot test; type: in vivo, Ipomoea purpurea; details: 320 g/ha, scored visually after about 3 weeks vs untreated controls
From the text: as §2, §3, §4

PHBPU [10] = assay: Post-emergence herbicidal effect, greenhouse pot test; type: in vivo, Ipomoea purpurea; details: Ipomoea purpurea, 504 h, read-out: Post-emergence effect against PHBPU in %
Outline: as §1

AMARE = assay: Pre-emergence herbicidal effect, greenhouse pot test; type: in vivo, Amaranthus retroflexus; details: scored visually after about 3 weeks vs untreated controls; for pest or weed control at 320 g/ha: Amaranthus retroflexus, 504 h, read-out: Pre-emergence effect at 320 g/ha against AMARE in %
From the text: as §2, §3, §4

SETVI [11] = assay: Post-emergence herbicidal effect, greenhouse pot test; type: in vivo, Setaria viridis; details: Setaria viridis, 504 h, read-out: Post-emergence effect against SETVI in %
Outline: as §1

VERPE = assay: as above; type: in vivo, Veronica persica; details: Veronica persica, 504 h, read-out: Post-emergence effect against VERPE in %
Outline: as §1

DIGSA [12] = assay: as above; type: in vivo, Digitaria sanguinalis; details: Digitaria sanguinalis, 504 h, visual rating about 3 weeks after treatment, read-out: Post-emergence effect against DIGSA
Outline: as §1

SETVI [13] = assay: Pre-emergence herbicidal effect, greenhouse pot test; type: in vivo, Setaria viridis; details: Setaria viridis, 504 h, 320 g/ha, scored visually after about 3 weeks vs untreated controls, read-out: Pre-emergence effect at 320 g/ha against SETVI in %
From the text: as §2, §3, §4

LOLRI [14] = assay: as above; type: in vivo, Lolium rigidum; details: 320 g/ha, scored visually after about 3 weeks vs untreated controls
From the text: as §2, §3, §4

AVEFA [15] = assay: as above; type: in vivo, Avena fatua; details: 320 g/ha, scored visually after about 3 weeks vs untreated controls
From the text: as §2, §3, §4

ZEAMX = assay: Pre-emergence herbicidal effect and crop plant compatibility, greenhouse pot test; type: in vivo, Zea mays; details: 80 g/ha, scored visually after about 3 weeks vs untreated controls
From the text: as §2, §3, §4

POLCO [16] = assay: Post-emergence herbicidal effect, greenhouse pot test; type: in vivo, Fallopia convolvulus; details: Fallopia convolvulus, 504 h, read-out: Post-emergence effect against POLCO in %
Outline: as §1

DIGSA [17] = assay: Pre-emergence herbicidal effect, greenhouse pot test; type: in vivo, Digitaria sanguinalis; details: 320 g/ha, scored visually after about 3 weeks vs untreated controls
From the text: as §2, §3, §4

LOLRI [18] = assay: Post-emergence herbicidal effect, greenhouse pot test; type: in vivo, Lolium rigidum; details: Lolium rigidum, 504 h, read-out: Post-emergence effect against LOLRI in %
Outline: as §1

Structure (SMILES) | Pre-emergence effect at 80 g/ha against GLXMA in % (GLXMA) [%] | pest or weed control at 320 g/ha (MATIN [2]) [%] | pest or weed control at 80 g/ha (ECHCG [3]) [%] | pest or weed control at 320 g/ha (ECHCG [3]) [%] | pest or weed control at 80 g/ha (ALOMY [4]) [%] | pest or weed control at 320 g/ha (ALOMY [4]) [%] | pest or weed control at 320 g/ha (MATIN [5]) [%] | pest or weed control at 320 g/ha (POLCO [6]) [%] | pest or weed control at 320 g/ha (ECHCG [8]) [%] | Pre-emergence effect at 80 g/ha against TRZAS in % (TRZAS) [%] | Pre-emergence effect at 320 g/ha against PHBPU in % (PHBPU [9]) [%] | pest or weed control at 320 g/ha (PHBPU [10]) [%] | Pre-emergence effect at 80 g/ha against AMARE in % (AMARE) [%] | pest or weed control at 320 g/ha (AMARE) [%] | pest or weed control at 320 g/ha (SETVI [11]) [%] | other results
COC(=O)C(OC)Oc1nn(-c2ncccc2F)c(-c2ccccc2)c1Br (centres unmarked) [Example I-06] | 10 | 90 | 80 | 80 | 90 | 90 | 80 | 80 | 100 | 10 | 90 | 80 | 90 | 100 | 80 | pest or weed control at 320 g/ha (VIOTR): 80%; Pre-emergence effect at 320 g/ha against ALOMY in % (ALOMY [1]): 90%; Pre-emergence effect at 80 g/ha against MATIN in % (MATIN [2]; 80 g/ha): 80%; pest or weed control at 80 g/ha (MATIN [5]; 80 g/ha): 80%; pest or weed control at 320 g/ha (AVEFA [7]): 80%; pest or weed control at 80 g/ha (PHBPU [10]; 80 g/ha): 80%; pest or weed control at 80 g/ha (SETVI [11]; 80 g/ha): 80%
COC(=O)C(OC)Oc1nn(-c2ncccc2F)c(-c2ccc(F)cc2F)c1Br (centres unmarked) [Example I-07] | 10 | 90 | 80 | 80 | 90 | 90 | 80 | 80 | 90 | 20 | 90 | 80 | 80 | 90 | 80 | pest or weed control at 80 g/ha (VERPE; 80 g/ha): 80%; pest or weed control at 320 g/ha (VERPE; 320 g/ha): 80%; pest or weed control at 80 g/ha (DIGSA [12]; 80 g/ha): 80%; pest or weed control at 320 g/ha (DIGSA [12]; 320 g/ha): 90%; pest or weed control at 320 g/ha (SETVI [13]): 100%; Pre-emergence effect at 320 g/ha against LOLRI in % (LOLRI [14]): 90%; Pre-emergence effect at 320 g/ha against AVEFA in % (AVEFA [15]): 80%; Pre-emergence effect at 80 g/ha against ZEAMX in % (ZEAMX): 10%; pest or weed control at 80 g/ha (POLCO [16]; 80 g/ha): 80%; pest or weed control at 320 g/ha (POLCO [16]; 320 g/ha): 90%; Pre-emergence effect at 320 g/ha against DIGSA in % (DIGSA [17]): 90%; pest or weed control at 80 g/ha (LOLRI [18]; 80 g/ha): 80%; pest or weed control at 320 g/ha (LOLRI [18]; 320 g/ha): 80%
